Laboratory results taken from US12152174B2, “Adjustably stable adhesive compositions for medical and non-medical uses, and recycling” (THE REGENTS OF THE UNIVERSITY OF CALIFORNIA, priority 2023, dated 2024).

How the values were obtained:
[1] = Lap shear tissue adhesion on wet bovine pericardium; conditions: adhesive with 14 mol % L2 vs 7 mol %
Description: An atomized spray was initially chosen, as it allows for quick evaporation of ethanol to increase the concentration of the mixture rapidly and eliminate any undesired flow of the adhesive solution on the tissue surfaces. A solution of L1 and L2 (7 mol %) was prepared and sprayed on two pieces of tissue surfaces (40 μL in 1 cm^2) and the two pieces were immediately brought into contact. After forming the lap joints, they were incubated for 2 minutes in PBS at 37° C. for further curing of the polymer network. The lap shear strength after 2 minutes on wet bovine pericardium tissue was >100 kPa, which was only slightly lower than medical-grade superglue (See FIG. 3A). […] The failure mode analyses of the lap joints was performed by applying N-bromo succinimide to the failed tissue surfaces to visually indicate by charge transfer complexation of disulfide functionality and therefore the presence of adhesive polymer. […] The enhanced lap shear strength at longer incubation time is consistent with the enhanced cohesive strength of the polymer network as observed in the rheology analysis of the wet polymer (see FIG. 2E).
Lap shear tissue adhesion was also performed with L3 on both wet bovine pericardium and pig skin.
To study the effect of stabilizer concentration on tissue adhesion strength, another lap shear test was performed with a higher L2 concentration (14 mol %). […]

[2] = Polymerization and depolymerization of ethanolic precursor on exposure to water or aqueous phosphate buffer; type: physicochemical; conditions: 400 mg/mL ethanolic solution added to aqueous phosphate buffer
Description: An ethanolic solution of pure α-lipoic acid L1 was prepared at 400 mg/mL and added to an aqueous phosphate buffer. A metastable sticky polymer was obtained, but within a few minutes (<5 min), the sticky polymer converted to a solid monomeric precipitate with no apparent adhesive property.
At any time prior to or after gelation of the precursor solution, exposure to water triggers dithiolane polymerization which can be exploited for the purposes of isolating a polymer adhesive or for adhering objects together. […] We believe α-lipoic acid undergoes self-catalyzed polymerization followed by stabilization with NHS esters. Nonetheless, the aqueous polymerization appears to be less sensitive and extremely fast irrespective of the solution concentrations. We believe that due to the amphiphilic nature of the α-lipoic acid, it undergoes micelle-like self-reorganization in contact with water, which locally concentrates the cyclic backbone to accelerate the polymerization rate. Furthermore, detailed ^1H NMR experiments of diluted ethanolic solution of the mixtures show excellent stability of the NHS esters even at an extended period. Therefore, this opens the possibility of an on-demand aqueous polymerization from a precursor ethanolic solution, which we considered to be advantageous for translation in medical and other underwater applications. […]

[3] = Gelation of ethanolic adhesive precursor solution; type: physicochemical; conditions: pure solution at similar concentration, extended periods of time
[4] = Storage stability of precursor or polymer against polymerization or depolymerization; type: physicochemical; conditions: coated and heated at 100° C for 4 hrs under vacuum, no stabilizer
From the text: The self-catalysis of α-lipoic acid takes place by the activation of disulfide with a carboxylic acid. Thus, we hypothesized that introduction of a functional group with higher electron density than disulfide will act as a potential competitor of disulfide, thereby suppressing initiation. […] However, the liquid undergoes ultrafast polymerization when brought into contact with water (FIG. 1) to yield an adhesive polymer. We surmise that due to its higher hydration energy, L4 becomes solvated as it comes in contact with water, leading to disulfide activation by the carboxylic acids. This approach provides an adhesive precursor suitable for spray, brush or injection mode of application. […] The coated PET was heated at 100° C. for 4 hrs under vacuum. The heat created a stable, sticky viscoelastic polymer, showing that the stabilizer molecules are also effective at high temperatures. By comparison, for example, pure α-lipoic acid treated under similar conditions also forms a sticky polymer, but within 2-3 days becomes a solid crystalline spot indicating depolymerization of the polymer. Although a stabilizer is needed in many applications that require a prolonged stability, the poly(asparagusic acid) without the stabilizer is sufficiently stable for some uses. […]

| shear strength at higher stabilizer concentration [1] | time until sticky polymer converted to solid monomeric precipitate (depolymerization) [2] [min] | gel formation [3] | time until sticky polymer becomes solid crystalline spot (depolymerization) [4] [days] | Structure (SMILES) |
| --- | --- | --- | --- | --- |
| No significant difference |  |  |  | O=C(CCCCC1CCSS1)ON1C(=O)CCC1=O (stereo not shown) [L2, NHS-derivatized lipoic acid] |
|  | < 5 | did not form a gel | 2 to 3 | O=C(O)CCCCC1CCSS1 (stereo not drawn) [L1, α-lipoic acid] |
